Results reported in paper PMC8741243 (Journal of Enzyme Inhibition and Medicinal Chemistry, 2022).
Where two headings read alike, the source gives them in different places.

Tests used:
Assay in all cases: stopped-flow CO2 hydration
Assay type in all cases: biochemical
NgCAα = biological target: T1, NgCAα (Neisseria gonorrhoeae, UniProt Q50940)
T1 construct: gene cah; recombinant, obtained in-house as described earlier
T1 sequence (Q50940 27-252): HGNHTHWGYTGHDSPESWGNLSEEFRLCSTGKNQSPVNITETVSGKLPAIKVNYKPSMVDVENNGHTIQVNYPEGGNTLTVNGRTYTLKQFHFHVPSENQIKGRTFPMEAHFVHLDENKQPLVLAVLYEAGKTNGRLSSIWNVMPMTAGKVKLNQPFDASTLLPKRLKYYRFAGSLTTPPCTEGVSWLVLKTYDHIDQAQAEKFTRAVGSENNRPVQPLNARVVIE

VchCAα = biological target: T2, VchCAα (Vibrio cholerae, UniProt Q9KMP6); conditions: read-out: Ki (μM)^a / VchCAα; […] h preincubation at […] °C; […] HEPES pH […] NaClO4; prodrug, lactone hydrolysed by CA esterase activity
T2 construct: gene VC_A0274
T2 sequence (Q9KMP6 21-239 limits assumed): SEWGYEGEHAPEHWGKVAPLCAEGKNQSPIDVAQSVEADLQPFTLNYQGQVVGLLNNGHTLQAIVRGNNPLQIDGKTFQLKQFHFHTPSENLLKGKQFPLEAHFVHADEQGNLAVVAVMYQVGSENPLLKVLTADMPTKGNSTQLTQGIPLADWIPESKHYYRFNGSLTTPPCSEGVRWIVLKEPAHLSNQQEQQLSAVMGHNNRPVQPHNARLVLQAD

hCA I = biological target: T3, hCA I (Homo sapiens, UniProt P00915)
T3 construct: gene CA1; recombinant, obtained in-house as described earlier
T3 sequence (P00915 2-261): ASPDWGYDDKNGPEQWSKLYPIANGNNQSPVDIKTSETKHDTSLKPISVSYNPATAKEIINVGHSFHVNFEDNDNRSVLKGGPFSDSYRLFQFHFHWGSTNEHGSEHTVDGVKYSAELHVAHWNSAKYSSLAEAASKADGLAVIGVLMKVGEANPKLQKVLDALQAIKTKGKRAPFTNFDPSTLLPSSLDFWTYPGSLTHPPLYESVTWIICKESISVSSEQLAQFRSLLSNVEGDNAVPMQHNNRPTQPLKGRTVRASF

hCA II = biological target: T4, hCA II (Homo sapiens, UniProt P00918)
T4 construct: gene CA2; recombinant, obtained in-house as described earlier

Structure (SMILES) | Ki (NgCAα; read-out: Ki (μM)^a / NgCAα) | Ki (VchCAα) | Ki (hCA I; read-out: Ki (μM)^a / hCA I) | Ki (hCA II; read-out: Ki (μM)^a / hCA II) | Ki (hCA I) | Ki (hCA II) | Ki (NgCAα)
O=c1ccc2ccc(O)cc2o1 [compound 3, 3] | 77.1 µM | 68.5 µM |  |  |  |  | 
CC(=O)c1c(O)ccc2ccc(=O)oc12 [compound 9, 7-hydroxy-8-acetyl-coumarin] | 42.5 µM | 39.8 µM | 949 µM | 646 µM |  |  | 
O=c1cc(O)c2ccccc2o1 [compound 4, 4] |  | 92.2 µM |  |  | 394 µM | 513 µM | 94.7 µM
Nc1ccc2c(C(F)(F)F)cc(=O)oc2c1 [compound 7, 7] | 97.1 µM | 95 µM | 940 µM | 733 µM |  |  | 
O=c1cc(O)c2ccc(O)cc2o1 [compound 12, 12] | 77.6 µM | 66 µM | 182 µM | 758 µM |  |  | 
CCOC(=O)c1cc2ccc(O)cc2oc1=O [compound 13, 13] | 395 µM | 432 µM | 900 µM | 961 µM |  |  | 
O=c1ccc2cc(O)ccc2o1 [compound 2, 2] | 92.4 µM | 77.5 µM | 192 µM | 683 µM |  |  | 
O=c1oc2ccccc2cc1O [compound 5, 5] | 110 µM | 290 µM | 490 µM | 625 µM |  |  | 
CCOC(=O)Cc1cc(=O)oc2cc(O)ccc12 [compound 11, 11] | 469 µM | 439 µM | 749 µM | 876 µM |  |  | 
CC(=O)c1cc2ccc(O)cc2oc1=O [compound 14, 14] | 395 µM | 303 µM | 470 µM | 786 µM |  |  | 
Cc1cc2ccc(O)cc2oc1=O [compound 10, 10] | 68 µM | 66.8 µM | 137 µM | 297 µM |  |  | 
CCN(CC)c1ccc2c(C)cc(=O)oc2c1 [compound 8, 4-methyl-7-diethylamino-coumarin] | 28.6 µM | 53.9 µM | 517 µM | 559 µM |  |  | 
O=c1ccc2ccccc2o1 [compound 1, simple unsubstituted coumarin 1] | 81.6 µM | 94.7 µM |  |  |  |  | 
